US20110118274A1, “PROTEASOME INHIBITORS AND THEIR USE IN TREATING PATHOGEN INFECTION AND CANCER” (CORNELL RESEARCH FOUNDATION, INC., priority 2007, published 2011)
Read-outs that look alike come from different tables or passages of the source.

Experiments:
[1] = target: α-chymotrypsin (Bos taurus, UniProt P00766); assay: Inhibition of α-chymotrypsin; format: biochemical, mammalian
From the text: The unique inactivation mechanism of oxathiazol-2-ones led to an examination of selectivity of these compounds among non-proteasomal proteases, such as chymotrypsin, trypsin, cathepsin B, and matrix metalloproteinase (MMP)-2, representatives of the serine-, cysteine-, and matrix metalloproteinase classes. […] In contrast to the proteasome's N-terminal Thr active site residue, chymotrypsin's active site Ser residue is positioned internally. Given the lack of a terminal NH2 group, the acyl-enzyme intermediate formed by reaction of oxathiazol-2-one with the γ-OH of chymotrypsin's active site Ser can undergo either aqueous hydrolysis to reactivate the enzyme or regeneration of oxathiazol-2-one by the released —OH or —SH group attacking —CO-γO-Ser.

[2] = target: T1, Mtb PrcAB-OG (Mycobacterium tuberculosis, UniProt P9WHT9); assay: biochemical; format: biochemical; conditions: read-out: kobs/[I] Mtb-OG
T1 construct: made in house; host or cells: E. coli

[3] = target: human 20S-β5 (Hu20S PA28) (Homo sapiens, UniProt P28074); assay: Kinetics of inhibition of human 20S proteasome β5 site in presence of PA28; format: biochemical; conditions: read-out: kobs/[I] Hu20S PA28
[4] = system: Mtb H37Rv; assay: Mycobactericidal activity against Mtb (CFU); format: cell-based, Mycobacterium tuberculosis; conditions: Mycobacterium tuberculosis, H37RV, 96 h; read-out: Mtb killing (50 μM)
[5] = system: M. bovis BCG; assay: microbe, parasite or virus in culture; format: cell-based, Mycobacterium bovis BCG; conditions: Mycobacterium tuberculosis variant bovis BCG, BCG, 96 h, read-out: BCG killing (25 μM)

T1 sequence (P9WHT9 58-291): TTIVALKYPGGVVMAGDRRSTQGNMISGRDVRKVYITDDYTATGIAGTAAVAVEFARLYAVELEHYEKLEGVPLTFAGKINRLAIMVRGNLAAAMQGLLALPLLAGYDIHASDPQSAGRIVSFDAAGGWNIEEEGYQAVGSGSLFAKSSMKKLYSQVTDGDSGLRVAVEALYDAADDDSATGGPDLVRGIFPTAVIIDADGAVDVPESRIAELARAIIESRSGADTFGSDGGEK

Structure (SMILES)	IC50 [1] [µM]	kinact/KI ([2]; Table 1) [M⁻¹ s⁻¹]	kinact/KI [3] [M⁻¹ s⁻¹]	kinact/KI [2] [M⁻¹ s⁻¹]	log reduction at 50 µM [4]	log reduction at 25 µM [5]
Cc1ccc(-c2nsc(=O)o2)cc1 [HT1117]	3.67	433	53.4			
O=c1oc(-c2ccccn2)ns1 [HT1043]	16.6		0.2	460	1.8	1
Cc1ccc(-c2nsc(=O)o2)s1 [HT1044]	8.02	1070	148		2	1.7
O=c1oc(-c2ccc([N+](=O)[O-])cc2)ns1 [HT1041]	2.08		12.9	598	1.7	0.8
COc1cc(OC)cc(-c2nsc(=O)o2)c1 [HT1147]	83.9	45.8				
O=c1oc(-c2ccco2)ns1 [HT1113]	22.7	435	10.1		2	1
COc1cccc(-c2nsc(=O)o2)c1 [HT1054]	2.19		14.8	636	2	> 3
O=c1oc(-c2cc([N+](=O)[O-])cs2)ns1 [HT1016]	5.87	732	12.3		2.2	> 3
Cc1cccc(-c2nsc(=O)o2)c1 [HT1118]	15.8		11.3	133	1.7	0.8
